According to patent US20110015153A1, “FLY CONTROL METHOD” (E.I. DU PONT DE NEMOURS AND COMPANY, priority 2007, published 2011):

Test system: Adult L. serricata (blowflies)
Assay: Test A: adult blowflies on blood agar containing test compound, number of dead flies scored
Assay type: in vivo
Details: 4 flies in test
Method: Adult L. serricata (blowflies): Adult flies are placed on beds of blood agar (in individual test wells; 4 flies per well) in which test compound (3-bromo-1-(3-chloro-2-pyridinyl)-N-[4-cyano-2-methyl-6-[(methylamino)carbonyl]phenyl]-1H-pyrazole-5-carboxamide) was dissolved/suspended prior to hardening of agar. Flies can take up test compound by both ingestion and contact. Assays are scored by number of dead flies at 2 hours, 4 hours, and 24 hours.

Compound	Number dead flies at 2 hours (Rate 1 ppm in blood agar)	Number dead flies at 4 hours (Rate 1 ppm in blood agar)	Number dead flies at 24 hours (Rate 1 ppm in blood agar)	Number dead flies at 2 hours (Rate 10 ppm in blood agar)	Number dead flies at 4 hours (Rate 10 ppm in blood agar)	Number dead flies at 24 hours (Rate 10 ppm in blood agar)	Number dead flies at 2 hours (Rate 25 ppm in blood agar)	Number dead flies at 4 hours (Rate 25 ppm in blood agar)	Number dead flies at 24 hours (Rate 25 ppm in blood agar)	Number dead flies at 2 hours (Rate 50 ppm in blood agar)	Number dead flies at 4 hours (Rate 50 ppm in blood agar)	Number dead flies at 24 hours (Rate 50 ppm in blood agar)	Number dead flies at 2 hours (Rate 100 ppm in blood agar)	Number dead flies at 4 hours (Rate 100 ppm in blood agar)	Number dead flies at 24 hours (Rate 100 ppm in blood agar)
CCOP(=S)(OCC)Oc1nc(Cl)c(Cl)cc1Cl [Chloropyriphos]	0	1	4	1	4	4	3	4	4	4	4	4	4	4	4
CNC(=O)c1cc(C#N)cc(C)c1NC(=O)c1cc(Br)nn1-c1ncccc1Cl [Test compound, 3-bromo-1-(3-chloro-2-pyridinyl)-N-[4-cyano-2-methyl-6-[(methylamino)-carbonyl]phenyl]-1H-pyrazole-5-carboxamide]	0	0	0	0	0	1	0	0	2	0	0	3	0	0	3
